Read-outs that look alike come from different tables or passages of the source. Marks after values point to notes of the source that are not given here.

These results are taken from patent US7226598B2, “Peptide inhibitors of HIV entry” (priority 1998, dated 2007).

The subject of one series is HIV-1. The method, then:
HIV Infectivity Assay. Inhibitory activity of IQN17 and derivatives was determined in an HIV luciferase assay (Chen et al., 1994). Specifically, virus was made by cotransfecting 293T cells with an HIV-1 genome containing a frame-shift mutation in env and luciferase replacing the nef gene (NL43LucR-E-) along with pCMVHXB2, an expression vector with the HXB2 gp160 gene. The resultant virus is only viable for one round of infection since its genome lacks the envelope gene. The cellular debris was removed by low-speed centrifugation. The remaining viral supernatant was used to infect HOS-CD4/Fusion cells (N. Landau, National Institutes of Health AIDS Reagent Program) in the presence of the potentially inhibitory peptides. Two days post infection, the cells were lysed and luciferase activity was monitored on a Wallac AutoLumat LB953 luminometer (Gaithersburg, Md.). IC50s (the peptide concentration at which half of the viral infection is inhibited) were calculated by fitting the data to a Langmuir equation [y=k/(1+[peptide]/IC50)], where y=luciferase activity and k is a scaling constant.

A short description of series [1]: Circular dichroism (helicity). The settings on record: for θ222 nm: 20 μM solution of peptide in PBS (legend of Table 1); for helicity: at 20 μM; for CD minimum at 222 nm: 10 μM. It counts as physicochemical. The method, then:
Circular Dichroism. All CD measurements were performed on an Aviv 62 DS cirucular dichroism spectrometer. […] The mean residue ellipticity (θ) was calculated by dividing the raw signal by peptide concentration (M), pathlength (mm) and number of amino acids. Percent helicity was calculated according to Chen et al. (Biochemistry, 13, 1974, p3350). Thermal denaturation scans of 10 μM peptide solutions in PBS were recorded at 222 nm. The peptide was heated at two degree intervals starting at 4° C., with an equilibration time of 1.5 minutes and an averaging time of 60 seconds.
(In general: Circular dichroism is widely used to follow secondary structure.)

Series [2] in a line: Sedimentation equilibrium (analytical ultracentrifugation). It counts as physicochemical. The procedure:
Sedimentation Equilibrium. All measurements were recorded on a Beckman XL-A analytical ultracentrifuge equipped with an An-60 Ti rotor. Lyophilized peptide was resuspended in water, and the peptide concentration was determined (Edelhoch, 1967). The solution was diluted to 100–200 μM and then dialized overnight against PBS. Following dialysis, the concentration was redetermined and the appropriate dilutions were made, using the dialysis buffer. The samples were centrifuged at speeds ranging from 19,000 to 25,000 RPM.

A short description of series [3]: Thermal denaturation followed by CD at 222 nm. The series is classed as physicochemical. The settings on record: in 2 M GuHCl.
Series [4] can be described thus: Thermal denaturation followed by CD at 222 nm. The series is classed as physicochemical. The procedure:
Circular Dichroism. All CD measurements were performed on an Aviv 62 DS cirucular dichroism spectrometer. Standard scans were performed on 10 μM solutions of peptide in PBS (50 mM sodium phosphate, 150 mM sodium chloride [pH 7.4]) from 200 to 260 nm in a 1 cm pathlength cuvette with a 5 second averaging time. The mean residue ellipticity (θ) was calculated by dividing the raw signal by peptide concentration (M), pathlength (mm) and number of amino acids. Percent helicity was calculated according to Chen et al. (Biochemistry, 13, 1974, p3350). Thermal denaturation scans of 10 μM peptide solutions in PBS were recorded at 222 nm. The peptide was heated at two degree intervals starting at 4° C., with an equilibration time of 1.5 minutes and an averaging time of 60 seconds.

The nature of series [5]: Solubility of the peptide (observation).
For series [6], the system named is HIV, modified to contain a luciferase reporter gene. The series is classed as cell-based. The settings on record: HOS cells expressing CD4 and coreceptor, 6 hours with virus, 48 hours more; read-out: IC50 of inhibition of luciferase activity.
Method: HIV, modified to contain a luciferase reporter gene, is mixed with HOS cells expressing CD4 and coreceptor in the presence of diluted protein for 6 hours at 37° C. […] The virus solution is replaced, and the HOS culture is incubated 48 hours more in fresh media. Luciferase activity is measured in a luminometer.
For series [7], the system named is syncytia formation between HELA cells expressing CD4 and coreceptor and CHO cells expressing gp160. The experiment in a line: Cell/cell fusion (syncytia) assay. The series is classed as cell-based, HIV. The settings on record: HELA CD4/coreceptor + CHO gp160/Tat, 8 to 24 hours; read-out: IC50 of inhibition of syncytia formation.
Method: Assays were carried out to assess the ability of IQN17 to interact with the C-region of gp41 and inhibit function of the fusion protein. This inhibition of membrane fusion by IQN17 and IQN23 and GCN4-pIQI was assessed using a cell based assay. Proteins IQN17, IQN23 and GCN4-pIQI are serially diluted in modified DMEM media with 5% FCS and aliquoted into slide chambers. HELA cells (4×10^4) expressing CD4 and coreceptor and containing a βgalactosidase gene under the control of the Tat promoter are added. CHO cells (2×10^4) expressing gp160 (precursor protein to gp120/gp41) and Tat are also added. The 400 μl miniculture is incubated at 37° for 8 to 24 hours; fused cells (syncytia) will transcribe and translate β-galactosidase. The cells are fixed in gluteraldehyde and exposed to X-gal/Fe solution for one hour. Syncytia that contain P-galactosidase turn blue-green.
[8] abbreviates: read-out: IC50 (concentration at which half of viral infectivity is inhibited), Table 1.
Where [9] appears, read: read-out: IC50 for viral infectivity.
Setting [10] is: midpoint of thermal denaturation, 10 μM peptide in PBS.
Where [11] appears, read: 20 μM peptide in PBS, 3.0 = discrete trimer.

Broadly, the melting point is the temperature of the solid-liquid transition. For the substance “Ac-IKKEIEAIKKEQEAIKKKIEAIEKLLQLTVWGIKQLQARIL-NH2 [IZN17]”, the melting point is greater than 100 °C. For the same substance, the IC50 in the series on HIV-1 (setting [8]) turned out to be 0.0056 µM. In [1], the θ222 nm is ~−31,000 deg cm^2 dmol^−1 and the helicity entry is “helical”. Further, the oligomeric state result in series [2] (at 20 μM) is listed as “discretely trimeric”. The “thermal denaturation temperature compared with IQN17” value in series [3] is recorded as “ten degrees higher”.

As to “Ac-KIEEIESKIKKIENEIARIKKLLQLTVWGIKQLQARIL-NH2 [II22N17]”, the melting point was greater than 100 °C. The IC50 in the series with HIV-1 (setting [8]) is roughly 0.17 µM. Besides, the IC50 with HIV-1 (setting [9]) is roughly 0.17 µM. In addition, in series [1], the “CD minimum at 222 nm” value was ~−41,000 deg cm^2 dmol^−1 and the θ222 nm is ~−41,000 deg cm^2 dmol^−1. Moreover, in series [4] (at 10 μM), the Melting Temperature was greater than 100 °C. The “Melting Temperature” value in series [4] (setting [10]) is greater than 100 °C. For the same substance, in series [2] (setting [11]), the Mobs/Mcalc is given as 3.02.

In the case of “Ac-KIEEIESKQKKIENEIARIKKLLQLTVWGIKQLQARIL-NH2 [IQ22N17]”, the melting point was ~ 76 °C. In addition, in the series on HIV-1 (setting [8]), the IC50 was roughly 1 µM. The IC50 in the series on HIV-1 (setting [9]) is roughly 1 µM. Further, in [1], the “CD minimum at 222 nm” value is reported as “approximately −36,000 deg cm^2 dmol^−1” and the θ222 nm was ~−36,000 deg cm^2 dmol^−1. Further, the Melting Temperature entry in series [4] (at 10 μM) is “below 80 °C”. The “Melting Temperature” value in series [4] (setting [10]) was roughly 76 °C. For the same substance, the Mobs/Mcalc in [2] (determined at 50 μM) is reported as 2.73*.

With “Ac-KIKKIENEIARIKKLLQLTVWGIKQLQARIL-NH2 [II15N17]”, the melting point is ~ 76 °C. Also, in the series on HIV-1 (setting [8]), the IC50 was roughly 3 µM. Further, the IC50 in the series on HIV-1 (setting [9]) is roughly 3 µM. For the same substance, in series [1], the “CD minimum at 222 nm” value is recorded as ~−33,000 deg cm^2 dmol^−1 and the θ222 nm was ~−33,000 deg cm^2 dmol^−1. Besides, the “Melting Temperature” value in [4] (setting [10]) is roughly 76 °C. The Mobs/Mcalc in [2] (setting [11]) is listed as 2.64.

Consider “Ac-LLQLTVWGIKQLQARIL-NH2 [N17, reference compound]”, for which the IC50 in the series with HIV-1 (setting [8]) and in the series with HIV-1 (setting [9]) was roughly 10 µM each time. Also, the solubility entry in series [5] is recorded as “difficult to get into solution—it precipitates”.

On to “Ac-RMKQIEDKIEEIESKQKKIENEIARIKKLIEAQQHLLQLTVWGIKQLQARIL-NH2 [IQN23]”, for which the “gain in inhibitory activity relative to IQN17” value with HIV-1 (gp41 residues increased from 17) is listed as roughly 6 fold. Moreover, the results for the IC50 (in the series on HIV-1 (setting [8]); in the series on HIV-1 (setting [9]); in series [6]) were roughly 0.03 µM, roughly 0.03 µM and roughly 0.08 µM, respectively. In addition, the Mobs/Mcalc in [2] (setting [11]) is 3.29; in [2] (at 20 μM), 3.3.

Turning to “Ac-RMKQIEDKIEEIESKQKKIENEIARIKKLLQLTVWDIKQLQARIL-NH2 [IQN17(G572D), reference compound]”, the IC50 in the series on HIV-1 (setting [8]) and in the series with HIV-1 (setting [9]) was roughly 20 µM each time. Besides, the θ222 nm in series [1] is reported as ~−39,000 deg cm^2 dmol^−1.

Regarding “Ac-RMKQIEDKIEEIESKQKKIENEIARIKKLLQLTVWGIKQLQARIL-NH2 [IQN17]”, the melting point was greater than 100 °C. For the same substance, the IC50 in the series with HIV-1 (setting [8]) was roughly 0.18 µM. In addition, in the series with HIV-1 (setting [9]), the IC50 is roughly 0.18 µM. In series [1], the θ222 nm was ~−36,000 deg cm^2 dmol^−1 and the helicity result is on record as “fully helical”. The Melting Temperature entry in series [4] (at 10 μM) is “above 100 °C”. The Melting Temperature entry in series [4] (concentration not given) was “above 100 °C”. Besides, the “Melting Temperature” value in series [4] (setting [10]) was greater than 100 °C. Further, in series [2] (setting [11]), the Mobs/Mcalc is on record as 3.15. Also, in series [2] (at 20 μM), the oligomeric state result is listed as “discretely trimeric”. Also, the IC50 in [7] fell in the range of 0.02 to 0.08 µM. The IC50 in series [6] is roughly 0.25 µM.

In the case of “Ac-YGGIKKKEIEAIKKEQEAIKKKIEAIEKEIVQARQLLSGIVQQQNNLLRAIEAQQH-NH2 [IZN26]”, the “Melting Temperature” value in series [4] (setting [10]) is roughly 82 °C.

Regarding EIARIKKLLQLTVWGIKQLQARIL [IQ8N17], the IC50 in the series on HIV-1 (setting [8]) is roughly 10 µM.

Take “KQKKIENEIARIKKLLQLTVWGIKWLWARIL [IQ15N17]”: in the series with HIV-1 (setting [8]), the IC50 is roughly 10 µM. Besides, in series [1], the “CD minimum at 222 nm” value is recorded as “approximately −27,000 deg cm^2 dmol^−1” and the θ222 nm was ~−27,000 deg cm^2 dmol^−1. In addition, the “thermal stability lower than that of IQ22N17” value in series [4] is listed as “about 10 degrees”. Besides, in series [4] (setting [10]), the “Melting Temperature” value was roughly 64 °C.
